According to ChEMBL document CHEMBL1136804, “Adenosine kinase inhibitors. 3. Synthesis, SAR, and antiinflammatory activity of a series of l-lyxofuranosyl nucleosides” (J Med Chem, 2003):
pIC50: −log10 of the molar value.

Tests used:
[1] = tested on: Rattus norvegicus; assay: Anti-inflammatory activity at a dose of 10 mg/kg, perorally in rat Carrageenan paw edema model; type: functional; settings: route oral
[2] = biological target: Adenosine kinase (Homo sapiens, UniProt P55263); assay: Inhibitory activity against human recombinant adenosine kinase
Adenosine kinase, sequence (P55263 whole entry): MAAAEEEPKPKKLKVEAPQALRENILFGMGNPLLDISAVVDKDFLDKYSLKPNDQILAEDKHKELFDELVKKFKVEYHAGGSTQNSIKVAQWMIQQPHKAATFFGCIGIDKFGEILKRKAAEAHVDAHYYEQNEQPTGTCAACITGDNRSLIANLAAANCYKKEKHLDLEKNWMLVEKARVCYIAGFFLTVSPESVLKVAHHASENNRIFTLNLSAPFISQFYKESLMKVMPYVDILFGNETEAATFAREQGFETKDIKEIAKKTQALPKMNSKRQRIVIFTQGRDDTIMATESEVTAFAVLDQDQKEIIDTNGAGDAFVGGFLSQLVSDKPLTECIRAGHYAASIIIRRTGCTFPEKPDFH

Structure (SMILES)	pIC50 [2]	inhibition in vivo at 10 mg/kg [1]
OC[C@@H]1O[C@@H](n2nc(-c3ccccc3)c3c(Nc4ccccc4)ncnc32)[C@H](O)[C@@H]1O (single isomer, unassigned)	8.55	14.2%
Nc1ncnc2c1c(Br)cn2[C@@H]1O[C@@H](CO)[C@@H](O)[C@H]1O (single isomer, unassigned)	6.55	–
COC[C@@H]1O[C@@H](n2cc(I)c3c(N)ncnc32)[C@H](O)[C@@H]1O (single isomer, unassigned)	5.70	–
Nc1ncnc2c1c(Br)nn2[C@@H]1O[C@@H](CO)[C@@H](O)[C@H]1O (single isomer, unassigned)	5.00	–
NC[C@@H]1O[C@@H](n2nc(Br)c3c(N)ncnc32)[C@H](O)[C@@H]1O (single isomer, unassigned)	6.77	–
OC[C@@H]1O[C@@H](n2cc(-c3ccccc3)c3c(Nc4ccc(F)cc4)ncnc32)[C@H](O)[C@@H]1O (single isomer, unassigned)	8.82	53.5%
NC[C@H]1O[C@@H](n2nc(Br)c3c(N)ncnc32)[C@H](O)[C@@H]1O (single isomer, unassigned)	8.40	–
NC[C@@H]1O[C@@H](n2cnc3c(N)ncnc32)[C@H](O)[C@@H]1O (single isomer, unassigned)	5.00	–
Nc1ncnc2c1c(I)cn2[C@@H]1O[C@@H](CO)[C@@H](O)[C@H]1O (single isomer, unassigned)	–	43.8%
COC[C@@H]1O[C@@H](n2cc(-c3ccccc3)c3c(Nc4ccccc4)ncnc32)[C@H](O)[C@@H]1O (single isomer, unassigned)	7.82	86%

Continued, in another order:

pIC50 [2]	Structure (SMILES)	inhibition in vivo at 10 mg/kg [1]
7.80	NC[C@@H]1O[C@@H](n2cc(I)c3c(N)ncnc32)[C@H](O)[C@@H]1O (single isomer, unassigned)	–
6.00	Nc1ncnc2c1ncn2[C@@H]1O[C@@H](CO)[C@@H](O)[C@H]1O (single isomer, unassigned)	–
7.38	NC[C@@H]1O[C@@H](n2nc(-c3ccccc3)c3c(Nc4ccccc4)ncnc32)[C@H](O)[C@@H]1O (single isomer, unassigned)	–
8.30	C[C@H]1O[C@@H](n2cc(-c3ccccc3)c3c(Nc4ccc(F)cc4)ncnc32)[C@H](O)[C@@H]1O (single isomer, unassigned)	–
